Reference: PMC8126183, “Three LysM effectors of Zymoseptoria tritici collectively disarm chitin‐triggered plant immunity” (Molecular Plant Pathology, 2021)

Tests used:
Mgx1LysM = biological target: T1, Mgx1LysM (Zymoseptoria tritici, UniProt P9WEM2); experiment: ligand-induced polymerization, centrifugation pellet with methylene blue; type: binding; settings: 200 µM protein stock mixed 1:1 with 2 mM chitohexaose; room temperature overnight
T1 construct: mature protein, signal peptide removed; E. coli Origami, pETSUMO; 6xHis-SUMO tag cleaved with ULP1; single LysM
T1 sequence (P9WEM2 19-103): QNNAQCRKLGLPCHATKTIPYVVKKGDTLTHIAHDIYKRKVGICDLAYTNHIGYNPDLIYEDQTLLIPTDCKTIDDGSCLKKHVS

Mg1LysM = biological target: T2, Mg1LysM (Zymoseptoria tritici, UniProt F9XHX3); experiment: as above; type: binding; settings: 200 µM protein stock mixed 1:1 with 2 mM chitohexaose; room temperature overnight; positive control
T2 construct: E. coli-produced; single LysM; borders and tag not described; ligand-independent homodimer
T2 sequence (F9XHX3 19-97): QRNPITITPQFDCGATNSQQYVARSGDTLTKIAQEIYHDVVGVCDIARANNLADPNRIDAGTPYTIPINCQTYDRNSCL

SMILES: CC(=O)N[C@H]1[C@H](O[C@H]2[C@H](O)[C@@H](NC(C)=O)[C@H](O[C@H]3[C@H](O)[C@@H](NC(C)=O)C(O)O[C@@H]3CO)O[C@@H]2CO)O[C@H](CO)[C@@H](O[C@@H]2O[C@H](CO)[C@@H](O[C@@H]3O[C@H](CO)[C@@H](O[C@@H]4O[C@H](CO)[C@@H](O)[C@H](O)[C@H]4NC(C)=O)[C@H](O)[C@H]3NC(C)=O)[C@H](O)[C@H]2NC(C)=O)[C@@H]1O (some centres unmarked) [chitohexaose]
- ligand-induced polymerization, centrifugation pellet with methylene blue (Mgx1LysM): a clear Mgx1LysM pellet emerged upon incubation with chitin, and not in the absence
- ligand-induced polymerization, centrifugation pellet with methylene blue (Mg1LysM): protein pellets (red arrowheads) as a consequence of polymerization for Mgx1LysM, Mg1LysM, and RiSLM
